Results on eight compounds are retold here after patent US20110178117A1 (Merck Sharp & Dohme Corp., priority 2008, published 2011).

T1 sequence (Q14416 19-872): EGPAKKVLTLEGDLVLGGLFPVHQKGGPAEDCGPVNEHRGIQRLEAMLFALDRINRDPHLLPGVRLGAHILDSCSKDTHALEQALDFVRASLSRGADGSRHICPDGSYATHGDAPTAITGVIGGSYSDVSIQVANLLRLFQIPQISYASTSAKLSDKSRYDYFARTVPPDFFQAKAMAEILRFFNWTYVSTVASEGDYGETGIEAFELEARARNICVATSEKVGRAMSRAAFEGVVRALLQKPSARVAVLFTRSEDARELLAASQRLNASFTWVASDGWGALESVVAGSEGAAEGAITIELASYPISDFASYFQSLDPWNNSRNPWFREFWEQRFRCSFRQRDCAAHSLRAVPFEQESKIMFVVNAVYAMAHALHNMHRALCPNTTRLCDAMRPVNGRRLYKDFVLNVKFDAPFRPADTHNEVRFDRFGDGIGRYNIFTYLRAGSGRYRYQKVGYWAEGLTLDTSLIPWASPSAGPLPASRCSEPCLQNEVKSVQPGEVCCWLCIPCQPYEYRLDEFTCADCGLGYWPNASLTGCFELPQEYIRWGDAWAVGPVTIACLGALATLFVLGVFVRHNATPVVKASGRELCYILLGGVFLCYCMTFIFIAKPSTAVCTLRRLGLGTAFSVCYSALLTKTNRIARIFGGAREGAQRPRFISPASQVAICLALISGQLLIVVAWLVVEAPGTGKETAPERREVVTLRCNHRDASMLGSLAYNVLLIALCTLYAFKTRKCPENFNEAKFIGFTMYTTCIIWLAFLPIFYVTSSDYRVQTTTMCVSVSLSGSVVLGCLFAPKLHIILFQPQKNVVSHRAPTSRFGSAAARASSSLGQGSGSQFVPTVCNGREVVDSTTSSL

This experiment concerns the target T1, recombinant human mGluR2 (Homo sapiens, UniProt Q14416).
T1 construct: expressed in transfected cells
The experiment can be described thus: FLIPR Ca2+ mobilization assay, potentiation of glutamate response. It is filed as cell-based. The conditions noted are these: CHO dhfr- cells expressing human mGluR2 and Gα16; potentiation after EC20 glutamate (900 nM); read-out: Representative FLIPR EC50 Values: EC50. How it is done:
The compounds of the present invention may be tested in a fluorescence laser imaging plate reader (FLIPR) based assay. This assay is a common functional assay to monitor Ca^2+ mobilization in whole cells expressing recombinant receptor coupled with a promiscuous G-protein. CHO dhfr-cells stably expressing recombinant human mGluR2 and Gα16 loaded with Fluo-4 AM (Invitrogen, Carlsbad Calif.) are treated with dose responses of compounds and the Ca^2+ response is monitored on a FLIPR384 (Molecular Devices, Sunnydale Calif.) for agonist activity. The potentiation response is monitored after a subsequent addition of an EC20 concentration of glutamate (900 nM). The maximum calcium response at each concentration of compound for agonist or potentiation are plotted as dose responses and the curves are fitted with a four parameters logistic equation giving EC50 and Hill coefficient using the iterative non linear curve fitting software program.
For orientation: Calcium flux is commonly read through the fluorescence of an indicator in the cells.
What is called EC50 is the concentration needed to bring the measured effect to its halfway point. For the compound `CCCCCC[C@@H]1Cn2c(nc3ccccc32)O1` [Example 1-5, (2R)-2-hexyl-2,3-dihydro[1,3]oxazolo[3,2-a]benzimidazole], the EC50 was 21 nM.

Consider `CCCCCC[C@@H]1Cn2c(nc3cc(C#N)ccc32)O1` [Example 1-19, (2R)-2-hexyl-2,3-dihydro[1,3]oxazolo[3,2-a]benzimidazole-7-carbonitrile], for which the 50% effective concentration (EC50) was 11 nM.

In the case of `COCCCCC1Cn2c(nc3ccccc32)O1` (centres unmarked) [Example 1-21, 2-(4-methoxybutyl)-2,3-dihydrobenzo[d]oxazolo[3,2-a]imidazole], the EC50 was determined as 3120 nM.

As to `c1ccc2c(c1)nc1n2CC(CC2CCCCC2)O1` (centres unmarked) [Example 3-5, 2-(cyclohexylmethyl)-2,3-dihydro[1,3]oxazolo[3,2-a]benzimidazole], the EC50 turned out to be 2140 nM.

Regarding `CC(C)(C)OC(=O)N1CCCC(C2Cn3c(nc4ccccc43)O2)C1` (centres unmarked) [Example 3-7, tert-butyl 3-(2,3-dihydro[1,3]oxazolo[3,2-a]benzimidazole-2-yl)piperidine-1-carboxylate], the EC50 stood at 378 nM.

In the case of `CCCCCCC1(C)Cn2c(nc3ccccc32)O1` (centres unmarked) [Example 4-2, 2-hexyl-2-methyl-2,3-dihydro[1,3]oxazolo[3,2-a]benzimidazole], the EC50 was 622 nM.

Take `CCCCCCC1(CC)Cn2c(nc3ccccc32)O1` (centres unmarked) [Example 4-3]: the EC50 came to 2290 nM.

As to “(R)-2-(6-fluorohexyl)-2,3-dihydrobenzo oxazolo[3,2-a]imidazole-7-carbonitrile [Example 1-31]”, the half-maximal effective concentration (EC50) was 68 nM.
